Test results from article PMC8387413 (Bioorganic chemistry, 2021).
Like-named read-outs stand apart in the source and are kept apart here.

Experiments:
γδ T cells [1] = settings: read-out: EC50 (γδ T cell stimulation), cited from earlier work
γδ T cells [2] = experiment: T cell proliferation: expansion of γδ T cells from human PBMCs, flow cytometry; type: cell-based; settings: for EC50: Homo sapiens, T-cell
γδ T cells [3] = type: cell-based; settings: Homo sapiens, K562, read-out: ELISA EC50 μM (95% CI)
K562 cells = experiment: K562 viability; type: cell-based; settings: for IC50: read-out: Toxicity IC50 μM (95% CI); for direct toxicity (in words): K562 cells, 72 hours of exposure, doses of 100 μM or lower
[4] = read-out: Proliferation EC50 μM (95% CI)
[5] = K562 leukemia cells, 72 hours exposure, n=3

SMILES | EC50 (γδ T cells [2]; [4]) | EC50 (γδ T cells [3]) | IC50 (K562 cells; Homo sapiens, K562, 72 h) | IC50 (K562 cells; [5]) | further results
C/C(=C\CCP(=O)(O)O)CO [C-HMBP] | – | – | – | – | EC50 (γδ T cells [1]): ~4 µM
COP(=O)(CC/C=C(\C)CO)OCOC(=O)c1ccc(/N=N/c2ccc(N(C)C)cc2)cc1 (stereo not drawn) [Compound 14, ((((E)-5-Hydroxy-4-methylpent-3-en-1-yl)(methoxy)phosphoryl)oxy)methyl 4-((E)-(4-(dimethylamino)phenyl)diazenyl)benzoate] | 0.099 µM | 0.11 µM | 36 µM | – | EC50 (γδ T cells [2]; read-out: EC50 for stimulation of γδ T cells): 0.11 µM; direct toxicity (in words) (K562 cells): toxic at 100 μM
COP(=O)(CC/C=C(\C)CO)Oc1ccc2ccc(=O)oc2c1 (stereo not drawn) [Compound 16, (E)-Methyl (2-oxo-2H-chromen-7-yl)(5-hydroxy-4-methylpent-3-en-1-yl)phosphonate] | – | – | – | > 100 µM | –
C/C(=C\CCP(=O)(O)Oc1ccc2ccc(=O)oc2c1)CO [Compound 17] | – | – | – | > 100 µM | –
C/C(=C\CCP(=O)(OCOC(=O)c1ccc(/N=N/c2ccc(N(C)C)cc2)cc1)Oc1ccc2ccc(=O)oc2c1)CO (stereo not drawn) [Compound 18, ((((E)-5-Hydroxy-4-methylpent-3-en-1-yl) ((2-oxo-2H-chromen-7-yl)oxy)phosphoryl)oxy)methyl 4-((E)-(4-(dimethylamino)phenyl)diazenyl)benzoate] | 0.0005 µM | 0.0075 µM | 27 µM | – | direct toxicity (in words) (K562 cells): toxic at 100 μM
COc1ccc2cc(C(=O)NCCc3ccc(OP(=O)(CC/C=C(\C)COC(C)=O)OC)cc3)c(=O)oc2c1 (stereo not drawn) [Compound 22, (E)-5-(Methoxy(4-(2-(7-methoxy-2-oxo-2H-chromene-3-carboxamido)ethyl)phenoxy)phosphoryl) -2-methylpent-2-en-1-yl acetate] | 5.8 µM | > 10 µM | > 100 µM | – | stimulation of proliferation (in words) (γδ T cells [2]; γδ T cells from human PBMCs): did not indicate substantial stimulation of proliferation
COc1ccc2cc(C(=O)NCCc3ccc(OP(=O)(CC/C=C(\C)COC(C)=O)OCOC(=O)c4ccc(/N=N/c5ccc(N(C)C)cc5)cc4)cc3)c(=O)oc2c1 (stereo not drawn) [Compound 23] | – | – | – | > 100 µM | –
C/C(=C\COP(=O)(O)OP(=O)(O)O)CO [HMBPP, (E)-4-hydroxy-3-methyl-but-2-enyl diphosphate] | – | – | – | – | EC50 (γδ T cells [1]; in our assays): ~0.0005 µM
